Laboratory results: a melting point compilation (Tetko et al.; mined from patent text by program, amines drawn as free bases though some values may be those of a salt)

First: CN1CCN(c2cccc(NC(=O)c3ccc(-c4ccncc4)cc3)c2)CC1
Second: CCN(CC)C(=O)c1ccc(C(=O)N2CCN(c3ncccc3NC(C)C)CC2)cc1
The melting point of the first is higher: 232 to 233 °C for the first, 78 to 80 °C for the second.

First: Cc1ccc([N+](=O)[O-])cc1COCC(F)(F)C(F)(F)F
Second: CN(C)C(=O)c1ccc([N+](=O)[O-])cc1S(N)(=O)=O
The melting point of the first is lower: 53.5 to 54.5 °C for the first, 159 to 160 °C for the second.

Compared with `C1=C(CCc2ccco2)CCN(Cc2n[nH]c3c2CCc2ccccc2-3)C1`, `CC(=O)NCCC1Nc2ccccc2N2CCc3cccc1c32` (stereo not given) is lower in melting point: 205 to 208 °C for the first, 196 to 198 °C for the second.

First: CCC(CC)Nc1c(NCc2ccc(OC)c(OC)c2)c(=O)c1=O
Second: CCn1c(=O)c2[nH]c(C(C)C)nc2n(Cc2ccc(OC)c(OC3CCCC3)c2)c1=O
The melting point of the first is higher: 223 to 224 °C for the first, 208 to 209 °C for the second.

First: CCOc1nnc(COc2ccc(Oc3cccc(Cl)n3)cc2)s1
Second: COC(=O)CNCc1ccc(OCc2ccccc2)cc1
The melting point of the first is higher: 92 to 94 °C for the first, 57 to 58 °C for the second.

Compared with `CCn1c2ccccc2c2cc(OC)c(C(=O)O)cc21`, `COC(C)=C(Cl)C(=O)Nc1ccccc1` is lower in melting point: 130 to 147 °C for the first, 100 °C for the second.

First: COc1ccc(S(=O)(=O)Nc2ccccc2NC(=O)c2cccnc2Cl)cc1
Second: CS(=O)(=O)Nc1ccc(C(=O)Nc2cn3cc(Cl)ccc3n2)cc1
The melting point of the first is lower: 133 to 135 °C for the first, 293 to 295 °C for the second.

Compared with `COc1ccc(C(=O)C(Cl)=NO)cc1`, `CCNC(=O)c1ccc(C=O)cc1` is lower in melting point: 118 to 125 °C for the first, 100 °C for the second.

Compared with `O=[N+]([O-])C=Cc1ccc(OCc2ccccc2)c(OCc2ccccc2)c1`, `O=C(O)COc1cc(F)c(-c2ccccc2)cc1C(=O)NCc1cccc([N+](=O)[O-])c1` is higher in melting point: 118 to 119 °C for the first, 210 to 211 °C for the second.

First: CCC(=O)COc1ccc(CC2SC(=O)N(C(c3ccccc3)(c3ccccc3)c3ccccc3)C2=O)cc1 (stereo not given)
Second: Cn1c(COc2ccc(CC3SC(=O)N(C(c4ccccc4)(c4ccccc4)c4ccccc4)C3=O)cc2)nc2ccc(Sc3ccccc3)nc21 (stereo not given)
The melting point of the first is higher: 155 to 156 °C for the first, 90 to 95 °C for the second.

First: CN(C)CCSc1c2ccccc2c(-c2cc(Br)c(O[C@H](Cc3ccccc3)C(=O)O)c(Br)c2)c2c1sc1ccccc12
Second: Cc1ccc(-n2c(-c3ccccc3)c(Br)c(Br)c2-c2ccccc2)cc1
The melting point of the first is lower: 169 to 174 °C for the first, 227 to 228 °C for the second.

First: O=C(CC(=O)N1CCOCC1)c1ccc2ccccc2c1O
Second: O=C(NCc1ccc(Cl)cc1)c1cnc2sc(CCCO)cc2c1O
The melting point of the first is lower: 128 to 130 °C for the first, 185 to 186 °C for the second.

First: FC(F)c1ncnc(-c2ccc(Cl)cc2Cl)c1Cl
Second: CN(C)c1ncc(O)c(-c2ccc(Cl)c(Cl)c2)n1
The melting point of the first is lower: 55 to 56 °C for the first, 188 to 189 °C for the second.

First: CC1Nc2ccccc2NC1=S (stereo not given)
Second: CSC(=S)N1C(CO)Cc2c([nH]c3ccccc23)C1C (stereo not given)
The melting point of the first is lower: 92 to 94 °C for the first, 153 to 156 °C for the second.

Compared with `COc1cn(C(C)C)c(=O)o1`, `CC(CN(C(C)C)C(C)C)N1C(=O)/C(=N/NC(N)=O)c2ccccc21` (stereo not given) is higher in melting point: 108 to 110 °C for the first, 195 to 197 °C for the second.

First: CC(C)(C)OC(=O)Nc1cccc(-c2nc(=O)o[nH]2)c1
Second: CC(C)(C)c1cc(NC(=O)Nc2csc(-c3cccnc3)n2)no1
The melting point of the first is lower: 193 °C for the first, 230 to 232 °C for the second.

Compared with `CN(C(=O)OCc1ccccc1)c1ccc2c(c1)C(=O)C1(CC1)O2`, `CC(NC(=O)C1CC(=O)c2cc(F)ccc2O1)c1ccccc1` (single isomer, unassigned; (+)) is higher in melting point: 79 to 81 °C for the first, 140 °C for the second.

First: Cc1cc(C)c(C2C(=O)CC(CC3CCOC3)CC2=O)c(C)c1 (stereo not given)
Second: Cc1c(N2CCC(C3(N)CCC3)C2)c(F)cc2c(=O)c(C(=O)O)cn([C@@H]3C[C@@H]3F)c12 (stereo not given in full)
The melting point of the first is lower: 62 to 64 °C for the first, 140 to 143 °C for the second.

First: CC(C)N(Cc1nc(-c2ccccc2)no1)C(=O)COc1ccc(C(=O)O)cc1
Second: CC(C)C(=O)c1cccn1N1C(=O)c2ccccc2C1=O
The melting point of the first is higher: 211 to 214 °C for the first, 147 to 149 °C for the second.

Compared with `Nc1ccc2ccccc2c1-c1c(O)ccc2ccccc12`, `O=C1c2ccccc2C(=O)c2oc(-c3ccccc3F)nc21` is higher in melting point: 236 to 237 °C for the first, > 260 °C for the second.

Compared with `NC=C1C(=O)N(c2cccc(Cl)c2)c2ccccc21`, `Clc1cccc(N2CCC3CCc4cnccc4C3=N2)c1` (stereo not given) is higher in melting point: 141 to 143 °C for the first, 152 to 155 °C for the second.

First: CC(C)SC(=S)N1Cc2[nH]c3ccccc3c2CC1C(=O)O (stereo not given)
Second: CCCCc1nc2c(n1Cc1ccc(C(=O)OC)cc1)C[C@@H](C(=O)O)N(C(=O)C(c1ccccc1)c1ccccc1)C2
The melting point of the first is higher: 188 to 190 °C for the first, 176 to 180 °C for the second.

First: CC(C)C[C@H](CC(=O)OC(C)(C)C)C(=O)N1C(=O)OC[C@@H]1C(C)C
Second: CC1CC2C3CC(Cl)C4=CC(=O)C=CC4(C)C3C(O)CC2(C)C1C(=O)COC(=O)C(C)(C)C (stereo not given)
The melting point of the first is lower: 143 to 144 °C for the first, 189 °C for the second.

Compared with `CC1=C(Nc2ccc(C3=NNC(=O)CC3)cc2)CCC1=O`, `Cc1nnc(-c2ccc3occ(-c4ccc(OS(C)(=O)=O)cc4)c3c2)o1` is lower in melting point: 284 to 285 °C for the first, 139 to 140 °C for the second.

Compared with `CC(C)(CCC#N)c1ccc(C(=O)Nc2cn3cc(C(F)(F)F)ccc3n2)cc1`, `Cc1cc(OCc2cnc(-c3ccc(C(F)(F)F)cc3)nc2C2CC2)ccc1OC(C)(C)C(=O)O` is lower in melting point: 233 to 234 °C for the first, 191 to 192 °C for the second.

Compared with `CCCCc1nn(-c2cc(NC(=O)CC)ccc2C(F)(F)F)c(=O)n1Cc1ccc(-c2ccccc2S(=O)(=O)NC(=O)c2ccccc2F)cc1F`, `CCc1ccc(Cl)c(CC)c1NS(=O)(=O)c1cc(S(=O)(=O)Nc2c(CC)ccc(Cl)c2CC)c2cc(O)ccc2c1` is higher in melting point: 119 to 122 °C for the first, 142 to 144 °C for the second.

Going from `N#Cc1cnn(-c2ccc(OC(F)(F)F)cc2Cl)c1N` to `N#Cc1c(N)nc2ccccc2c1Cl`, the melting point rises from 115 °C to 210 °C.

`Nn1ccnc1-c1ccc(Cl)cc1` and `Cc1ccnc(Nc2nc(-c3cc(-c4ccc(Cl)cc4)no3)cs2)c1` cannot be ordered by melting point: 210 °C for the first, 209 to 211 °C for the second.

First: CCCCCCCCCCCC(=O)O[C@H](CCCCCCCCCCC)CC(=O)N[C@@H](CO)C(=O)OCc1ccccc1
Second: CCCCCCCCC(CCCCCCCC)N1C(=O)c2ccc3c4cccc5cccc(c6ccc(c2c36)C1=O)c54
The melting point of the first is lower: 53 to 54 °C for the first, 143 to 144 °C for the second.

Compared with `CC(C)(CO)CNc1cc(C(c2cc(F)ccc2F)S(=O)(=O)c2ccc(Cl)cc2)c(Cl)cn1` (stereo not given), `CC(CNC(=S)Nc1ccc(N2CCCCC2)cc1)N(Cc1ccc(Cl)c(Cl)c1)c1ccc(Br)cn1` (stereo not given) is lower in melting point: 176 to 178 °C for the first, 125 to 127 °C for the second.

First: CCCCCc1cnc(-c2ccc(N=C=S)cc2)nc1
Second: CCCc1ccc(C=Nc2ccc(C#N)cc2)cc1
The melting point of the first is lower: 46 °C for the first, 64.8 to 65.5 °C for the second.

Compared with `CC12CCC3C(CC=C4CCCCC43C)C1CC(F)C2=O` (stereo not given), `COc1cccc(NC(=O)C23CC4CC(CC(C4)C2)C3)c1` is lower in melting point: 228 to 230 °C for the first, 172 to 174 °C for the second.

First: O=C1C2=C(CCCC2)C(O)N1c1ccc(Cl)cc1F (stereo not given)
Second: O=[N+]([O-])c1cc(OC2CCCC2)c(Cl)cc1F
The melting point of the first is higher: 178 to 179 °C for the first, 58 to 62.6 °C for the second.

First: Nc1ccc(-c2cc(C(F)(F)F)nc(-c3ccc(C(F)(F)F)cc3)n2)cc1
Second: N#Cc1ccc(Oc2nccc(-c3c(-c4ccc(F)cc4)ncn3C3CCNCC3)n2)cc1
The melting point of the first is lower: 162 °C for the first, 192 to 193 °C for the second.

Compared with `Nc1ncc(I)c(N)c1I`, `COc1cccc2sc(NN)nc12` is higher in melting point: 206 °C for the first, 215 to 220 °C for the second.

First: CC(C)Oc1cc(CCC(=O)O)n(Cc2ccc(C(F)(F)F)cc2Cl)n1
Second: CCCCCCCCCCCCNC(=O)c1cc(Br)c(OCCn2ccnn2)c(-c2cccc(C(F)(F)F)c2)c1
The melting point of the first is higher: 122 °C for the first, 70.5 to 72.5 °C for the second.

First: CC(=O)NNc1ccc(-n2c(-c3ccccc3)csc2=S)cc1
Second: CN1OCC(=O)N(c2ccc(Oc3ccccc3)cc2)C1=S
The melting point of the first is higher: 230 to 232 °C for the first, 159 to 160 °C for the second.

First: Cc1ccccc1N1CCN(CCCCCC(=O)O)CC1
Second: COCCC(=O)N[C@H]1CC[C@H](CCN2CCN(c3nc(C)cc4occc34)CC2)CC1
The melting point of the first is lower: 125 °C for the first, 158 °C for the second.

Compared with `CCCCNC(=O)NS(=O)(=O)c1ccn(C)n1`, `CCCCN1C(=O)CSC(=NO)C1C` (stereo not given) is lower in melting point: 168 to 169 °C for the first, 118 to 120 °C for the second.

First: O=c1cc(-c2ccncc2)oc2ccccc12
Second: S=C(Nc1ccccc1)c1ccccn1
The melting point of the first is higher: 144 to 145 °C for the first, 45 to 46 °C for the second.

First: CC(C)(C)C(=O)SC/C(=C/c1ccccc1)C(=O)O
Second: O=C(C1=NCCCCCN1)c1ccccc1
The melting point of the first is higher: 88 °C for the first, 70 to 71 °C for the second.

First: NC(=O)NNC1=NC=Cc2ccccc2C1
Second: Cc1cc(NC(=O)Nc2ccc(N(CCCl)CCCl)cc2)c2ccccc2n1
The melting point of the first is higher: 188 to 189 °C for the first, 128 to 129 °C for the second.

Compared with `NCCc1c(Br)[nH]c2ccc3c(=O)[nH]ccc3c12`, `CCCCc1cc2c(cc1/C=C/c1ccc(C(=O)O)cc1)C(C)(C)CCC2(C)C` is lower in melting point: 252 °C for the first, 192 to 194 °C for the second.

Compared with `CC1(C)COC(c2sccc2C2c3cc4c(cc3OCC2[N+](=O)[O-])OCO4)=N1` (stereo not given), `CC(=O)N(Cc1cccs1)C1(c2ccc(Cl)cc2)CCC1` is lower in melting point: 138 to 140 °C for the first, 105 to 108 °C for the second.

Compared with `CN1CCN(c2cc(Cl)cc3c2c(=O)n(CCc2ccccc2)c(=O)n3Cc2ccccc2)CC1`, `O=C1c2ccccc2C(=O)N1CCc1ccc(OC2c3ccccc3CCc3ccccc32)cc1` is higher in melting point: 136 to 138 °C for the first, 205 to 207 °C for the second.

First: COc1cc(Nc2nccc(-c3ccc(N4CCCNCC4)nc3)n2)cc(OC)c1OC
Second: COc1cc2ncnc(NC3=CC(=O)C(N(C)c4ccccc4)=CC3=O)c2cc1OC
The melting point of the first is lower: 144 to 145 °C for the first, 204 to 206 °C for the second.

First: COc1ccc2c(c1)CN(C(N)=O)N=C2Cc1c(Cl)cncc1Cl
Second: CCC1(C(=O)C=Cc2ccc(OC)c(OC)c2)CC1
The melting point of the first is higher: > 230 °C for the first, 63 to 65 °C for the second.

First: O=C(NCCN1CCC(=C(c2ccc(F)cc2)c2ccc(F)cc2)CC1)C1CSC(c2cccnc2)N1 (stereo not given)
Second: Cn1cnc(S(=O)(=O)Nc2ccc(OCCN3CCN(c4nsc5ccccc45)CC3)cc2)c1
The melting point of the first is lower: 119 to 121 °C for the first, 176 °C for the second.

`O=C(Nc1cccc2c(-n3ccnc3)c(Br)cnc12)c1c(-n2ccnc2)cccc1-n1ccnc1` and `N#Cc1ccc(Nn2cnnc2)cc1-c1ccccc1` cannot be ordered by melting point: 175 to 185 °C for the first, 181 to 182 °C for the second.

Compared with `OCCNc1ccc2nnn(Cc3ccc4ncccc4c3)c2n1`, `CC(=O)Nc1c([N+](=O)[O-])cc(Br)cc1[N+](=O)[O-]` is higher in melting point: 184 to 186 °C for the first, 238 to 239 °C for the second.
